Common to all, as to format: in vitro ADME
The nature of series [1]: Protein binding rate in plasma by equilibrium dialysis, SD rats. As for the experimental part: Protein binding rate of the assay compound in plasma of CD-1 mice, SD rats, beagle dogs, cynomolgus monkeys and human was determined by equilibrium dialysis.
Plasma samples with a compound concentration of 2 μM were prepared using plasma of the above five species, placed in a 96-well equilibrium dialysis device, and dialyzed with phosphate buffer solution at 37±1° C. for 4 hours. Warfarin was used as the control compound in this assay. The concentrations of the assay compound in plasma and dialysis buffer were determined by LC-MS/MS method.

Series [2] is described as follows: Stability in whole blood, beagle dogs. The note with it: 5 μM, 37° C. As for the experimental part: Stabilities of the assay compound in whole blood of CD-1 mice, SD rats, beagle dogs and cynomolgus monkeys were assayed, respectively. On the day of the assay or the day before the assay, fresh whole blood from CD-1 mice, SD rats, beagle dogs, and cynomolgus monkeys was collected using anticoagulant EDTA-K2. Prior to the start of the assay, the whole blood was mixed with PBS in 1:1 (v: v) and the mixture was preheated in a 37° C. water bath for 10 to 20 minutes. 96-well incubation plates were prepared and named T0, T30, T60, […], respectively. In the corresponding incubation plates, including T0, T30, T60 and […] incubation plates, 2 μL of working solutions of the compound or the control compound were mixed with 98 μL of blank whole blood of mice, rats, canines, monkeys and human in duplicate. All samples were incubated in a 37° C. water bath. The final incubation concentration of the compound was 5 μM and the final incubation concentration of the control compound was 2 μM. At the end of incubation for each time point, the corresponding incubation plate was removed and 100 μL of ultrapure water was immediately added to the corresponding sample wells, and mixed well. 800 μL of a solution of 200 ng/mL tolbutamide and labetalol in acetonitrile was added to precipitate the protein. […] 150 μL of supernatant was taken out and analyzed by LC/MS/MS.

Series [3] in a line: Stability in plasma, human. The note with it: 2 μM, 37° C. As for the experimental part: Stabilities of the assay compound in plasma of CD-1 mice and human were assayed, respectively. Cryopreserved plasma was thawed for 10 to 20 min. After the plasma was completely thawed, it was placed in a centrifuge and centrifuged at 3220×g for 5 min to remove any suspended matter and sediment in the plasma. 96-well incubation plates were prepared and named T0, T10, T30, T60, T120, respectively. 98 μL of blank plasmas of mouse, rat, canine, monkey and human were added to the corresponding incubation plates, then 2 μL of working solutions of the compound or the control compound were added to the corresponding plates in duplicate. All samples were incubated in a 37° C. water bath. The final incubation concentrations of the compound and the control compounds bisacodyl, enalapril maleate, procaine and probanthine were 2 μM, and the final organic phase content was 2.0%. At the end of incubation for each time point, the corresponding incubation plate was removed and 400 μL of a solution of 200 ng/mL of tolbutamide and labetalol in acetonitrile was added to each corresponding sample well to precipitate the protein. All sample plates were sealed and shaken well, and then centrifuged at 3220×g for 20 minutes. 50 μL of supernatant was taken out and diluted in 100 μL of ultrapure water. All samples were mixed well and then analyzed by LC/MS/MS.

Series [4] in a line: In vitro stability in liver microsomes, CD-1 mice. The note with it: mouse, CD-1 mice liver microsomes, 0.5 mg/mL. As for the experimental part: Metabolic stabilities of the assay compound in liver microsomes of CD-1 mice, SD rats, beagle dogs, cynomolgus monkeys, and human were assayed, respectively.
Two 96-well incubation plates were prepared and named T60 incubation plate and NCF60 incubation plate, respectively. 445 μL of microsomal working solutions (liver microsomal protein concentration of 0.56 mg/mL) were added to the T60 incubation plate and the NCF60 incubation plate, respectively, and then the above incubation plates were pre-incubated in a 37° C. water bath for about 10 minutes.
After the pre-incubation, 5 μL of working solutions of the assay sample or the control compound were added to the T60 incubation plate and the NCF60 incubation plate, respectively, and the mixture was mixed well. 50 μL of potassium phosphate buffer was added to each well of the NCF60 incubation plate to initiate the reaction. 180 μL of stop solution (200 ng/mL tolbutamide and 200 ng/mL labetalol in acetonitrile) and 6 uL of NADPH regeneration system working solution were added to the T0 stop plate, and 54 μL of sample was transferred from T60 incubation plate to T0 stop plate (generation of T0 sample). The reaction was initiated by adding 44 μL of NADPH regeneration system working solution to each well of the T60 incubation plate. Only 54 μL of microsome working solution, 6 uL of NADPH regeneration system working solution and 180 μL of stop solution were added to the Blank plate. Therefore, in samples of the assay compound or the control compound, the final reaction concentration of compound, testosterone, diclofenac and propafenone was 1 μM, the concentration of liver microsomes was 0.5 mg/mL, and the final reaction concentrations of DMSO and acetonitrile in the reaction system were 0.01% (v/v) and 0.99% (v/v), respectively. […] All samples were injected and analyzed by liquid chromatography-tandem mass spectrometry.
(In general: Liver microsomes are a subcellular fraction often used to study metabolism.)

Turning to `C=C(F)C(=O)N1CCN(c2nc(OC[C@@]34CCCN3C[C@H](F)C4)nc3c2CO[C@H](c2c(F)c(N)cc(C)c2C(F)(F)F)C3)C[C@@H]1CC#N` [Compound of formula (I)], the “Protein unbound rate (%)” value in series [1] (SD rats plasma, 2 μM, equilibrium dialysis 4 hours) is given as 4.8%. The fraction unbound at 4 h, 2 μM in series [1] (plasma, value used in the SD rat PK table, read-out: Plasma protein unbound rate PPB (Unbound %)) was found to be 0.048. Besides, the “Detection of assay compound content within 240 min” value in series [2] is reported as 102%. In series [3], the “Detection of assay compound content within 120 min” value amounted to 93%. For the same molecule, in series [4], the CLint scaled (commonly the capacity of the preparation to metabolise the compound, expressed as a volume cleared per time) at 1 μM was 1130 mL/min/kg and the half-life (commonly how long it takes for the measured level to halve) at 1 μM was 4.9 min. In addition, the microsomal CLint at 1 μM in series [4] (read-out: CLint(hep)) came to 285 µL/min/mg.

These data come from patent US20250129102A1, “CRYSTAL FORM OF PYRIMIDINE HETEROCYCLIC COMPOUND AND PREPARATION METHOD THEREFOR” (D3 Bio (Wuxi) Co., Ltd., priority 2021, published 2025).
